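Growth conditions: 96-well plates. Treatment: test compound, 48 hours, 5 concentrations. Analysis: linear interpolation between bracketing concentrations; unreached endpoints set to highest concentration. Abbreviation: GI50, concentration required for 50% inhibition of growth.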 The source made the active and inactive calls. No stated cut-off is given here; in the data, active = GI50 up to about 1.1 µM and inactive = higher.
Key:
Assay in all cases: inhibition of tumour cell growth, NCI panel, 48 h
EKVX = tested on: EKVX
HCT-116 = tested on: HCT-116
HCT-15 = tested on: HCT-15
HOP-62 = tested on: HOP-62
HOP-92 = tested on: HOP-92
NCI-H23 = tested on: NCI-H23
NCI-H460 = tested on: NCI-H460
OVCAR-5 = tested on: OVCAR-5
OVCAR-8 = tested on: OVCAR-8
RXF 393 = tested on: RXF 393
SK-MEL-2 = tested on: SK-MEL-2
SK-MEL-5 = tested on: SK-MEL-5
SN12C = tested on: SN12C
SNB-19 = tested on: SNB-19
SR = tested on: SR
CCRF-CEM = tested on: CCRF-CEM
KM12 = tested on: KM12
OVCAR-3 = tested on: OVCAR-3
UACC-257 = tested on: UACC-257
NCI/ADR-RES = tested on: NCI/ADR-RES

| Structure (SMILES) | GI50 (EKVX) | GI50 (HCT-116) | GI50 (HCT-15) | GI50 (HOP-62) | GI50 (HOP-92) | GI50 (NCI-H23) | GI50 (NCI-H460) | GI50 (OVCAR-5) | GI50 (OVCAR-8) | GI50 (RXF 393) | GI50 (SK-MEL-2) | GI50 (SK-MEL-5) | GI50 (SN12C) | GI50 (SNB-19) | GI50 (SR) | GI50 (CCRF-CEM) | GI50 (KM12) | GI50 (OVCAR-3) | GI50 (UACC-257) | GI50 (NCI/ADR-RES) |
| --- | --- | --- | --- | --- | --- | --- | --- | --- | --- | --- | --- | --- | --- | --- | --- | --- | --- | --- | --- | --- |
| c1csc(C(NC2=NCCO2)C2CC2)c1 (centres undefined) | > 100 µM (inactive) | > 100 µM (inactive) | > 100 µM | > 100 µM (inactive) | 93.5 µM (inactive) | > 100 µM (inactive) | > 100 µM (inactive) | > 100 µM (inactive) | > 100 µM (inactive) | > 100 µM (inactive) | > 100 µM (inactive) | > 100 µM (inactive) | > 100 µM (inactive) | > 100 µM (inactive) | > 100 µM (inactive) |  |  |  |  |  |
| CCOC(=O)NC1CC2CCC1(OC)C=C2C (centres undefined) | > 100 µM (inactive) | > 100 µM (inactive) | > 100 µM | > 100 µM (inactive) | > 100 µM (inactive) | > 100 µM (inactive) | > 100 µM (inactive) | > 100 µM (inactive) | > 100 µM (inactive) | > 100 µM (inactive) | > 100 µM (inactive) | > 100 µM (inactive) | > 100 µM (inactive) | > 100 µM (inactive) | > 100 µM (inactive) | > 100 µM (inactive) | > 100 µM (inactive) | > 100 µM (inactive) | > 100 µM (inactive) |  |
| CCOC(=O)c1cc2c(ccc3cc(C(=O)OCC)[nH]c32)[nH]1 | > 100 µM (inactive) | 41.9 µM (inactive) | 33.3 µM | 21.7 µM (inactive) | 78.7 µM (inactive) | 27.2 µM (inactive) | 43.9 µM (inactive) | > 100 µM (inactive) |  | 15.8 µM (inactive) | > 100 µM (inactive) | 25.8 µM (inactive) | 25.9 µM (inactive) | 25.4 µM (inactive) | 17.5 µM (inactive) | 27.8 µM (inactive) | 95.1 µM (inactive) | 87.1 µM (inactive) | > 100 µM (inactive) |  |
| C[N+](C)(C)C.FC(F)(F)C1(C(F)(F)F)O[SiH-]2(OC(C(F)(F)F)(C(F)(F)F)c3ccccc32)c2ccccc21 | 14.2 µM (inactive) |  | 10.4 µM |  |  | 11 µM (inactive) | 8.97 µM (inactive) | 13.2 µM (inactive) | 15.3 µM (inactive) | 13 µM (inactive) | 17.7 µM (inactive) |  | 18.1 µM (inactive) | 7.18 µM (inactive) | 14.5 µM (inactive) |  | 19.9 µM (inactive) | 18.9 µM (inactive) | 24.4 µM (inactive) |  |
| CCNC(C)Cc1ccccc1 (centres undefined) | > 100 µM (inactive) | > 100 µM (inactive) | > 100 µM | > 100 µM (inactive) | > 100 µM (inactive) | > 100 µM (inactive) | > 100 µM (inactive) | > 100 µM (inactive) | > 100 µM (inactive) | > 100 µM (inactive) | > 100 µM (inactive) | > 100 µM (inactive) | > 100 µM (inactive) | > 100 µM (inactive) | > 100 µM (inactive) | > 100 µM (inactive) | > 100 µM (inactive) | > 100 µM (inactive) | > 100 µM (inactive) |  |
| CC1=CC(C)(C)N=C2SC(c3ccc(N)cc3)=NN12 | 24.9 µM (inactive) | 41 µM (inactive) | 31.6 µM | > 100 µM (inactive) | 51.8 µM (inactive) | > 81.1 µM (inactive) | 52.4 µM (inactive) | 49.7 µM (inactive) | 55.7 µM (inactive) | > 100 µM (inactive) |  | 70.3 µM (inactive) | > 95.9 µM (inactive) | > 87.3 µM (inactive) | 46.9 µM (inactive) | 27.9 µM (inactive) | > 70.6 µM (inactive) | 58.2 µM (inactive) | > 94 µM (inactive) |  |
| O=C(Nc1c(Cl)cc([N+](=O)[O-])cc1Cl)C(=O)C(C1OC(=O)c2ccccc21)[N+](=O)[O-] (centres undefined) | 75.9 µM (inactive) | > 100 µM (inactive) | > 100 µM | 81.8 µM (inactive) | 15.1 µM (inactive) | > 100 µM (inactive) | > 100 µM (inactive) | > 100 µM (inactive) | > 100 µM (inactive) | > 100 µM (inactive) | > 100 µM (inactive) | > 100 µM (inactive) | > 100 µM (inactive) | > 100 µM (inactive) | > 100 µM (inactive) | > 100 µM (inactive) | > 100 µM (inactive) | > 100 µM (inactive) | > 100 µM (inactive) |  |
| COc1ccc(/C=N/n2cnc3c(c2=O)S/C(=C2/SC(=S)N(c4ccc(C)cc4)C2=O)N3c2ccccc2)cc1 | > 100 µM (inactive) | 56 µM (inactive) | > 100 µM | 22.8 µM (inactive) | 25.8 µM (inactive) |  | 68.7 µM (inactive) | > 100 µM (inactive) | 70.5 µM (inactive) | 17.3 µM (inactive) | 79.4 µM (inactive) |  | > 100 µM (inactive) | 28.4 µM (inactive) | 31.6 µM (inactive) | 43.6 µM (inactive) | > 100 µM (inactive) | 29.9 µM (inactive) |  |  |
| CC(C)C[P+](c1ccccc1)(c1ccccc1)c1ccccc1 | 3.1 µM (inactive) | 4.3 µM (inactive) | 64.3 µM | 13.7 µM (inactive) | 3.32 µM (inactive) | 7.4 µM (inactive) | 5.89 µM (inactive) | 73.6 µM (inactive) |  |  | 4.36 µM (inactive) | 2.86 µM (inactive) | 12.3 µM (inactive) | 9.35 µM (inactive) |  | 0.419 µM (active) | 1.79 µM (inactive) | 2.31 µM (inactive) | 0.342 µM (active) | > 100 µM (inactive) |
| Cc1noc(/N=C2\C=C(Nc3onc(C)c3C)C(=O)c3ccccc32)c1C | > 100 µM (inactive) | 95.5 µM (inactive) | > 100 µM | > 100 µM (inactive) | > 100 µM (inactive) | 27.5 µM (inactive) | > 100 µM (inactive) | > 100 µM (inactive) | 16 µM (inactive) | > 100 µM (inactive) | 48.1 µM (inactive) | 15.6 µM (inactive) | > 100 µM (inactive) | > 100 µM (inactive) | 24.3 µM (inactive) | > 100 µM (inactive) | > 100 µM (inactive) | 2.88 µM (inactive) | 36.7 µM (inactive) |  |
| O=C(CCN(C(=O)O)S(=O)(=O)c1ccc(NC(=O)c2ccccc2)cc1)NC1CCCCC1 | > 100 µM (inactive) | > 100 µM (inactive) | 47.6 µM | > 100 µM (inactive) | > 100 µM (inactive) | > 100 µM (inactive) | 42.4 µM (inactive) | > 100 µM (inactive) | > 100 µM (inactive) |  | > 100 µM (inactive) | > 100 µM (inactive) | > 100 µM (inactive) | > 100 µM (inactive) | 17.8 µM (inactive) | 27.6 µM (inactive) | > 100 µM (inactive) | > 100 µM (inactive) | > 100 µM (inactive) |  |
| O=C(CCC(=O)C1CCC/C1=N/O)Nc1ccc(Cl)cc1 (centres undefined) | > 100 µM (inactive) | > 100 µM (inactive) | > 100 µM | > 100 µM (inactive) | > 100 µM (inactive) | > 100 µM (inactive) | > 100 µM (inactive) | > 100 µM (inactive) | > 100 µM (inactive) |  | > 100 µM (inactive) | > 100 µM (inactive) | > 100 µM (inactive) | > 100 µM (inactive) | > 100 µM (inactive) | > 100 µM (inactive) | > 100 µM (inactive) | > 100 µM (inactive) | > 100 µM (inactive) |  |
| CC(=O)OCC1OC(n2cc([N+](=O)[O-])c(=O)[nH]c2=O)C(OC(C)=O)C(OC(C)=O)C1OC(C)=O (centres undefined) | > 100 µM (inactive) | > 100 µM (inactive) | > 100 µM | > 100 µM (inactive) | > 100 µM (inactive) | > 100 µM (inactive) | > 100 µM (inactive) | > 100 µM (inactive) | > 100 µM (inactive) | 76 µM (inactive) | > 100 µM (inactive) | > 100 µM (inactive) | > 100 µM (inactive) | > 100 µM (inactive) | > 100 µM (inactive) | > 100 µM (inactive) | > 100 µM (inactive) | > 100 µM (inactive) | > 100 µM (inactive) |  |
| CCOC(=O)Cc1csc2[n+]1C(=O)/C(=C/c1cccc(OC)c1O)S2 | 74.1 µM (inactive) | 45.5 µM (inactive) | 42.4 µM | > 100 µM (inactive) | 93.8 µM (inactive) | 33.7 µM (inactive) | 41.9 µM (inactive) | > 100 µM (inactive) | 52.6 µM (inactive) |  | 45 µM (inactive) | 42.9 µM (inactive) | 81.5 µM (inactive) | 50.9 µM (inactive) |  |  | 38.1 µM (inactive) | 38.2 µM (inactive) | 61.8 µM (inactive) | 47 µM (inactive) |
| CC(C)=CCCC(C)[C@H]1CC(O)C2(C)C3=CCC4C(C)(C)[C@@H](O)CC[C@]4(C)C3=CC[C@]12C (some centres undefined) | 26 µM (inactive) | 2.4 µM (inactive) | 5.01 µM | 5.83 µM (inactive) | 3.27 µM (inactive) | 3.72 µM (inactive) | 2.24 µM (inactive) | 25 µM (inactive) | 1.8 µM (inactive) | 2.92 µM (inactive) | 23.3 µM (inactive) | 14.3 µM (inactive) | 3.14 µM (inactive) | 12.1 µM (inactive) | 11.6 µM (inactive) | 5.25 µM (inactive) | 4.36 µM (inactive) | 3.2 µM (inactive) | 22.5 µM (inactive) |  |
| CC(=O)N/C=C/c1cc(O)ccc1O | 45.2 µM (inactive) | 32.5 µM (inactive) | 40.8 µM | > 41 µM (inactive) | 18.7 µM (inactive) | 34.4 µM (inactive) | > 60.7 µM (inactive) | 29.4 µM (inactive) | 45.7 µM (inactive) | 31.7 µM (inactive) | 34.9 µM (inactive) | 36.5 µM (inactive) | 29.9 µM (inactive) | > 52.7 µM (inactive) | 22 µM (inactive) | 25.3 µM (inactive) | 37.7 µM (inactive) | 16 µM (inactive) | 31 µM (inactive) |  |

— ChEMBL document CHEMBL1201862, “PubChem BioAssay data set” (2004)
